How the values were obtained:
Assay in all cases: selective drug sensitivity score (sDSS, relative to normal bone marrow) (sDSS (score)); higher = more potent and effective on the cell line relative to normal bone marrow cells
Settings in all cases: 72 h
MOLT-16 = system: MOLT-16
MN-60 = system: MN-60
P30-OHKUBO = system: P30-OHKUBO
MHH-CALL-3 = system: MHH-CALL-3
HPB-ALL = system: HPB-ALL
COG-LL-332h = system: COG-LL-332h
HAL-01 = system: HAL-01
LC4-1 = system: LC4-1
MHH-CALL-4 = system: MHH-CALL-4
PF-382 = system: PF-382
PEER = system: PEER
COG-LL-394h = system: COG-LL-394h
COG-LL-355h = system: COG-LL-355h
COG-LL-317 = system: COG-LL-317
RPMI-8402 = system: RPMI-8402
TANOUE = system: TANOUE
KASUMI-9 = system: KASUMI-9
ALL-SIL = system: ALL-SIL
MOLT-14 = system: MOLT-14
KASUMI-2 = system: KASUMI-2
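Also: ALL cell lines in 384-well plates, five doses spanning 10,000-fold, each plate scaled between vehicle and 100 µmol/L benzalkonium chloride controls, sDSS an adapted area-under-curve metric.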

SMILES | selective drug sensitivity score (MOLT-16) | selective drug sensitivity score (MN-60) | selective drug sensitivity score (P30-OHKUBO) | selective drug sensitivity score (MHH-CALL-3) | selective drug sensitivity score (HPB-ALL) | selective drug sensitivity score (COG-LL-332h) | selective drug sensitivity score (HAL-01) | selective drug sensitivity score (LC4-1) | selective drug sensitivity score (MHH-CALL-4) | selective drug sensitivity score (PF-382) | selective drug sensitivity score (PEER) | selective drug sensitivity score (COG-LL-394h) | selective drug sensitivity score (COG-LL-355h) | selective drug sensitivity score (COG-LL-317) | selective drug sensitivity score (RPMI-8402) | selective drug sensitivity score (TANOUE) | selective drug sensitivity score (KASUMI-9) | selective drug sensitivity score (ALL-SIL) | selective drug sensitivity score (MOLT-14) | selective drug sensitivity score (KASUMI-2)
CC[C@@H](C(=O)[C@@H](C)[C@@H](O)[C@H](C)[C@@H]1O[C@@H]([C@@H](CC)C(=O)O)CC[C@@H]1C)[C@H]1O[C@]2(C=C[C@@H](O)[C@]3(CC[C@@](C)([C@H]4CC[C@](O)(CC)[C@H](C)O4)O3)O2)[C@H](C)C[C@@H]1C [Salinomycin] (top concentration 50000 nM) | 10.7 | 0.3 | -7.8 | -3.3 | -1.2 | -2.9 | 5.6 | -10.9 | 8.5 | -5.4 | 10.5 | 3.2 | -3.1 | -2.2 | 10.1 | -7.5 | -11.4 | 0.6 | 6.3 | -23.2
COc1cccc2c1C(=O)c1c(O)c3c(c(O)c1C2=O)C[C@@](O)(C(C)=O)C[C@@H]3O[C@H]1C[C@H](N)[C@H](O)[C@H](C)O1 [Daunorubicin] (top concentration 1000 nM) | 13.5 | -0.34 | 6.46 | 16.4 | -1.64 | 12.1 | -2.24 | 6.36 | 7.46 | 1.26 | -3.84 | 8.66 | 5.06 | 14.8 | 8.96 | -9.54 | 7.06 | 1.26 | 9.66 | 10.8
CO[C@H]1C[C@@H]2CC[C@@H](C)[C@@](O)(O2)C(=O)C(=O)N2CCCC[C@H]2C(=O)O[C@H]([C@H](C)C[C@@H]2CC[C@@H](OP(C)(C)=O)[C@H](OC)C2)CC(=O)[C@H](C)/C=C(\C)[C@@H](O)[C@@H](OC)C(=O)[C@H](C)C[C@H](C)/C=C/C=C/C=C/1C [Ridaforolimus] (top concentration 100 nM) | 10.6 | 5.16 | 4.36 | 3.96 | -4.84 | 7.36 | -4.34 | 4.46 | -4.44 | 5.86 | 7.26 | -4.84 | -2.14 | 2.76 | -1.44 | -4.84 | 6.96 | 3.06 | -2.44 | 8.66
O[C@H]1CC[C@H](Nc2ncc3nc(Nc4c(F)cc(F)cc4F)n([C@H]4CCOC4)c3n2)CC1 [Tanzisertib] (top concentration 10000 nM) | 0 | 0 | 0 | 0 | 0 | 0 | 0 | 0 | 0.2 | 0 | 0 | 0 | 0.8 | 0 | 0 | 0 | 0 | 0 | 0 | 0
CC(C)Oc1ccc(C(=O)N[C@H](CNC(=O)CN(C)C)Cc2ccc(-c3cn4cccc([C@H](C)O)c4n3)cc2)cc1Cl (top concentration 10000 nM) | 20.1 | -1.62 | 12.8 | -9.32 | 8.18 | 16.5 | 1.98 | 8.28 | 0.78 | 6.68 | 19.9 | -0.72 | -2.62 | 16.6 | 9.28 | -9.32 | 10.3 | 12.8 | 17.4 | 6.38
Oc1nc(-c2ccc(C(F)(F)F)cc2)nc2c1CSCC2 [XAV939] (top concentration 10000 nM) | -0.14 | -0.14 | -0.14 | -0.14 | -0.14 | -0.14 | -0.14 | 0.56 | -0.14 | -0.14 | 0.96 | 0.36 | 0.46 | -0.14 | -0.14 | -0.14 | -0.14 | -0.14 | -0.14 | 1.46

Reference: the supplement of paper PMC8967900
